In patent US11020394B2, “Compositions and methods for treating inflammatory bowel disease using a combination therapy of small molecule inhibitors of C—C chemokine receptor type 9 (CCR9) and anti-α4β7 integrin blocking antibodies” (ChemoCentryx, Inc., priority 2014, dated 2021):

System: in vitro differentiated human CCR9+α4β7+ T cells
Experiment: Static binding (adhesion) assay of in vitro differentiated T cells on MAdCAM-1-Fc coated plates
Format: cell-based
Conditions: 1 μM CCX507, with hCCL25, MAdCAM-1-Fc coated plates, FIG. 1B
Method: Adhesion assays were performed as follows. Human lymphocytes were isolated from total PBMCs and activated with α-CD3ε/α-CD28 (1 μg/mL; R&D Systems) in the presence of 1 μM retinoic acid (Sigma) and 1 ng/mL human IL12 (R&D Systems). In vitro activated T cells were further expanded for 5 days in the presence of 1 μM retinoic acid (RA) and 1 ng/mL human IL12. The expanded cells were stained with an anti CCR9 APC conjugated antibody (Cat. No. 248621; R&D Systems) and a conjugated anti-α4β7 integrin antibody (Act-1). The stained cells were analyzed by flow cytometry. Expression of CCR9 and α4β7 integrin in the expanded T cells was depicted as a 2-parameter scatterplot in FIG. 1A.
In vitro activated T cells were added to 96-well plate coated overnight with 0.3 μg/mL MAdCAM-1-Fc fusion protein (R&D Systems) in the presence of the following conditions: DMSO only, 500 ng human CCL25 (hCCL25; a CCR9 ligand) only, 1 μM CCX507 (a CCR9 small molecule inhibitor) only, or 500 ng hCCL25 and 1 μM CCX507. Adherent cells were quantified using CyQUANT® Cell Proliferation Assays (Thermo Fisher).

In the case of Cc1cc(NS(=O)(=O)c2ccc(C(C)(C)C)c(F)c2)n(-c2ccc(N)c3ncccc23)n1 [CCX507], the “binding of RA-differentiated human T cells to MAdCAM-1 (adherent cells quantified using CyQUANT, RFU)” value is reported as “limits the binding of RA-differentiated human T cells to MAdCAM-1”.
